Experimental data published in patent US12195427B2, “MASP-2 inhibitors and methods of use” (priority 2018, dated 2025).
Each block holds one molecule with its values, some of them ahead of it.

Target: MASP-2 CCP2-SP (Homo sapiens (Human), UniProt O00187)
Assay: MASP-2 co-crystallization, X-ray crystallography and structure analysis (H-bonds, van der Waals contacts);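 for Ligand-pharmacophore element distance, pharmacophore element C2: distance from averaged pharmacophore element to bound ligand; missing value means element absent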;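 for Ligand-pharmacophore element distance, pharmacophore element C3: distance from averaged pharmacophore element to bound ligand; missing value means element absent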;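 for Ligand-pharmacophore element distance, pharmacophore element C4: distance from averaged pharmacophore element to bound ligand; missing value means element absent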;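 for Ligand-pharmacophore element distance, pharmacophore element C5: distance from averaged pharmacophore element to bound ligand; missing value means element absent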
Parameters: van der Waals contact distance, MASP-2 HIS 483 atom CD2 / van der Waals contact distance, MASP-2 HIS 483 atom NE2 / van der Waals contact distance, SER 654 C to compound atom / van der Waals contact distance, SER 654 O to compound atom / van der Waals contact distance, TRP 655 C to compound atom / van der Waals contact distance, MASP-2 GLY 528 atom CA / van der Waals contact distance TRP 655 atom CZ3 / van der Waals contact distance TRP 655 atom N / van der Waals contact distance TRP 655 atom CE3 / van der Waals contact distance GLY 656 atom C / van der Waals contact distance GLY 656 atom CA / van der Waals contact distance GLY 656 atom O / van der Waals contact distance, MASP-2 TYR 607 atom CD1 / van der Waals contact distance, MASP-2 PRO 606 atom O / d(C3,CA1) / d(CA1,N1)2 / d(H4,O1) / d(H4,O2) / d(O1,O2) / d(CA1,O2) / d(CA6,O1) / d(CA6,O2) / d(CA1,C5) / d(O2,H3) / d(N2,C2) / d(CA5,N2) / d(N2,C4) / d(N2,C6) / d(N2,CA3) / d(N2,O3) / d(O4,H2): unit not given beside the values
Settings: for Ligand-pharmacophore element distance, pharmacophore element C2 / Ligand-pharmacophore element distance, pharmacophore element C3 / Ligand-pharmacophore element distance, pharmacophore element C4 / Ligand-pharmacophore element distance, pharmacophore element C5 / Ligand-pharmacophore element distance, pharmacophore element C6 / Ligand-pharmacophore element distance, pharmacophore element C7 / Ligand-pharmacophore element distance, pharmacophore element CA1 / Ligand-pharmacophore element distance, pharmacophore element CA2 / Ligand-pharmacophore element distance, pharmacophore element CA3 / Ligand-pharmacophore element distance, pharmacophore element CA4 / Ligand-pharmacophore element distance, pharmacophore element CA5 / Ligand-pharmacophore element distance, pharmacophore element CA6: Table A4-1; for d(N2,C2) / d(N2,CA2) / d(O2,H3) / d(O2,N2): Table A5-2 pharmacophore distance, S3/S4 region; for a(O1, O2, H3) / a(O1, O2, N2) / a(O2, N2, C2) / a(O2, N2, CA2): Table A6-2 pharmacophore angle; for Pharmacophore torsion angle a(O1, O2, N2, CA2): Table A7-2
Method in brief: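 E. coli-expressed CCP2-SP (±6His); apo crystals soaked 1–2× in inhibitor-containing crystallization solution; optional 20% glycerol cryoprotection, LN2 flash-cool; synchrotron data at 1.0 wavelength; MR using 1Q3X portions, partial refinement; single pose analysed when several seen.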

[1] = Table A5-1 pharmacophore: distance between elements, S2/S1 region
[2] = Table A7-1, between pharmacophore elements of the bound compound
[3] = between pharmacophore elements of the bound compound

Chain of MASP-2 CCP2-SP (O00187 445-686): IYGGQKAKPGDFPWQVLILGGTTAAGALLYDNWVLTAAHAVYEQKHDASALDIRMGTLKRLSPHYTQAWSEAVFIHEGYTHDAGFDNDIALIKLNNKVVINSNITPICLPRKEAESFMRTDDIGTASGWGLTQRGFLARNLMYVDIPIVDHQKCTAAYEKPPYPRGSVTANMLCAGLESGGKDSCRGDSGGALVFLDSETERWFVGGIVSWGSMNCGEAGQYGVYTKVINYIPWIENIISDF
Chain of MASP-2 CCP2-SP (O00187 364-432 partner): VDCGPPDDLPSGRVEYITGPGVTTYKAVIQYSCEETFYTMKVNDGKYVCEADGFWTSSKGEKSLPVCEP

H-bond distance to MASP-2 GLY 656 atom N (Table A1 (H-Bonds), GLY 656 N): 3.13 | H-bond distance to MASP-2 GLY 656 atom O (Table A1 (H-Bonds), GLY 656 O): 2.75 | H-bond distance to MASP-2 SER 654 atom O (Table A1 (H-Bonds), SER 654 O): 2.89 | van der Waals contact distance, MASP-2 HIS 483 atom CD2 (Table A2-1): 3.73 | van der Waals contact distance, MASP-2 HIS 483 atom NE2 (Table A2-1): 3.76 | van der Waals contact distance, MASP-2 PHE 529 atom CE1 (Table A2-3): 3.77 | van der Waals contact distance, MASP-2 PHE 529 atom CE2 (Table A2-3): 3.82 | van der Waals contact distance, MASP-2 amino acid atom to compound atom (Table A2-5: TYR 607 (CE1, CE2, OH), PRO 608 (CD, CG), SER 611 (CA)): 3.73 | van der Waals contact distance, MASP-2 amino acid atom to compound atom (Table A2-9 second part, ARG 630, AA atoms N, NE, NH1): 3.49 | van der Waals contact distance, VAL 653 CG1 to compound atom (Table A2-11): 3.71 | van der Waals contact distance TRP 655 atom CE3 (Table A2-13, MASP-2 TRP 655 CE3, compound atom in line below): 3.59 | van der Waals contact distance TRP 655 atom CZ3 (Table A2-13, MASP-2 TRP 655 CZ3): 3.73 | van der Waals contact distance TRP 655 atom N (Table A2-13, MASP-2 TRP 655 N): 3.68 | Ligand-pharmacophore element distance, pharmacophore element C2: 0.26 | Ligand-pharmacophore element distance, pharmacophore element C3: 0 | Ligand-pharmacophore element distance, pharmacophore element C4: 0 | Ligand-pharmacophore element distance, pharmacophore element C5: 0.2 | Ligand-pharmacophore element distance, pharmacophore element C6: 0 | Ligand-pharmacophore element distance, pharmacophore element C7: 0 | Ligand-pharmacophore element distance, pharmacophore element CA1: 0.98 | Ligand-pharmacophore element distance, pharmacophore element CA2: 0.18 | Ligand-pharmacophore element distance, pharmacophore element CA3: 0 | Ligand-pharmacophore element distance, pharmacophore element CA4: 0 | Ligand-pharmacophore element distance, pharmacophore element CA5: 0 | Ligand-pharmacophore element distance, pharmacophore element CA6: 0 | d(CA1,C5) [1]: 3.47 | d(CA1,O1) [1]: 5.49 | d(CA1,O2) [1]: 4.76 | d(CA1,O4) [1]: 1.77 | d(H4,O1) [1]: 3.16 | d(H4,O2) [1]: 3.59 | d(O1,O2) [1]: 3.46 | d(N2,C2): 1.51 | d(N2,CA2): 5.79 | d(O2,H3): 2.89 | d(O2,N2): 2.65 | a(C5, CA1, O1) (Table A6-1 pharmacophore angle): 151.25 | a(CA1, O1, O2) (Table A6-1 pharmacophore angle): 97.80 | a(O1, CA1, O4) (Table A6-1 pharmacophore angle): 65.77 | a(O1, O2, H4) (Table A6-1 pharmacophore angle): 118.66 | a(O1, O2, H3): 135.90 | a(O1, O2, N2): 141.60 | a(O2, N2, C2): 129.89 | a(O2, N2, CA2): 155.75 | Pharmacophore torsion angle a(C5, CA1, O1, H4) [2]: 6.40 | Pharmacophore torsion angle a(H4, O1, O2, H3) [2]: 109.26 | Pharmacophore torsion angle a(H4, O1, O2, N2) [2]: −171.69 | Pharmacophore torsion angle a(O1, H4, O2, CA1) [2]: −96.26 | Pharmacophore torsion angle a(O1, O2, N2, C2) [2]: 118.46 | Pharmacophore torsion angle a(O1, O2, N2, CA2) [3]: 127.94
Structure (SMILES): C[C@H](NC(=O)[C@H]1C[C@@H](c2ccccc2)CCN1)C(=O)NCc1cnc2[nH]cc(Cl)c2c1 [compound 1433, (2R,4S)—N—((S)-1-(((3-Chloro-1H-pyrrolo[2,3-b]pyridin-5-yl)methyl)amino)-1-oxopropan-2-yl)-4-phenylpiperidine-2-carboxamide]

Structure (SMILES): C[C@H](NC(=O)[C@H]1C[C@@H](c2ccccc2)CCN1)C(=O)NCc1cc(Cl)ccc1O.Cl [1078_3]
Ligand-pharmacophore element distance, pharmacophore element C2: 0.43 | Ligand-pharmacophore element distance, pharmacophore element C3: 0 | Ligand-pharmacophore element distance, pharmacophore element C4: 0 | Ligand-pharmacophore element distance, pharmacophore element C5: 0.45 | Ligand-pharmacophore element distance, pharmacophore element C6: 0 | Ligand-pharmacophore element distance, pharmacophore element C7: 0 | Ligand-pharmacophore element distance, pharmacophore element CA1: 1.53 | Ligand-pharmacophore element distance, pharmacophore element CA2: 0.27 | Ligand-pharmacophore element distance, pharmacophore element CA3: 0 | Ligand-pharmacophore element distance, pharmacophore element CA4: 0 | Ligand-pharmacophore element distance, pharmacophore element CA5: 0 | Ligand-pharmacophore element distance, pharmacophore element CA6: 0 | d(CA1,C5) [1]: 3.13 | d(CA1,O1) [1]: 4.44 | d(CA1,O2) [1]: 4.54 | d(CA1,O4) [1]: 2.75 | d(H4,O1) [1]: 3.13 | d(H4,O2) [1]: 3.61 | d(O1,O2) [1]: 3.17 | d(O4,H2) [1]: 0.98 | d(N2,C2): 1.45 | d(N2,CA2): 5.70 | d(O2,H3): 2.05 | d(O2,N2): 2.79 | a(C5, CA1, O1) (Table A6-1 pharmacophore angle): 162.08 | a(CA1, O1, O2) (Table A6-1 pharmacophore angle): 112.44 | a(CA1, O4, H2) (Table A6-1 pharmacophore angle): 128.44 | a(O1, CA1, O4) (Table A6-1 pharmacophore angle): 67.41 | a(O1, O2, H4) (Table A6-1 pharmacophore angle): 124.44 | a(O1, O2, H3): 132.07 | a(O1, O2, N2): 145.54 | a(O2, N2, C2): 126.01 | a(O2, N2, CA2): 154.83 | Pharmacophore torsion angle a(C5, CA1, O1, H4) [2]: −5.62 | Pharmacophore torsion angle a(H4, O1, O2, H3) [2]: −160.53 | Pharmacophore torsion angle a(H4, O1, O2, N2) [2]: −166.69 | Pharmacophore torsion angle a(O1, H4, O2, CA1) [2]: −82.33 | Pharmacophore torsion angle a(O1, O2, N2, C2) [2]: 132.95 | Pharmacophore torsion angle a(O1, O2, N2, CA2) [3]: 140.71

Structure (SMILES): C[C@H](NC(=O)[C@H]1C[C@H](Cc2ccccc2)CN1)C(=O)NCc1ccc(C(=N)N)cc1.Cl.Cl [1306_1]
Ligand-pharmacophore element distance, pharmacophore element C2: 0 | Ligand-pharmacophore element distance, pharmacophore element C3: 0 | Ligand-pharmacophore element distance, pharmacophore element C4: 0 | Ligand-pharmacophore element distance, pharmacophore element C5: 0 | Ligand-pharmacophore element distance, pharmacophore element C6: 0 | Ligand-pharmacophore element distance, pharmacophore element C7: 0 | Ligand-pharmacophore element distance, pharmacophore element CA1: 0.05 | Ligand-pharmacophore element distance, pharmacophore element CA2: 0.6 | Ligand-pharmacophore element distance, pharmacophore element CA3: 0 | Ligand-pharmacophore element distance, pharmacophore element CA4: 0 | Ligand-pharmacophore element distance, pharmacophore element CA5: 0 | Ligand-pharmacophore element distance, pharmacophore element CA6: 0 | d(CA1,N1) [1]: 3.54 | d(CA1,O1) [1]: 4.38 | d(CA1,O2) [1]: 4.22 | d(H4,O1) [1]: 4.25 | d(H4,O2) [1]: 5.09 | d(O1,O2) [1]: 3.06 | d(N2,CA2): 6.06 | d(O2,H3): 5.26 | d(O2,N2): 2.66 | a(CA1, O1, O2) (Table A6-1 pharmacophore angle): 107.94 | a(O1, O2, H4) (Table A6-1 pharmacophore angle): 143.05 | A(N1, CA1, O1) a) (Table A6-1 pharmacophore angle, all compounds with protonatable center N1 except Methyl-amino-pyridine): 158.44 | a(O1, O2, H3): 152.11 | a(O1, O2, N2): 135.46 | a(O2, N2, CA2): 155.89 | Pharmacophore torsion angle a(H4, O1, O2, H3) [2]: 36.21 | Pharmacophore torsion angle a(H4, O1, O2, N2) [2]: 120.80 | Pharmacophore torsion angle a(N1, CA1, O2, H4) [2]: 106.51 | Pharmacophore torsion angle a(O1, H4, O2, CA1) [2]: −170.32 | Pharmacophore torsion angle a(O1, O2, N2, CA2) [3]: 136.58
